# Legend:
# total bacteria = test: In vitro gut model batch culture fermentation, FISH-FCM enumeration of total bacteria (Eub); assay type: cell-based, human faecal bacteria; settings: until 48 h, WD experiment; 'except' = not elevated
# Protocol: (§1) In vitro gut model batch culture fermentations were run for 72 hours. Samples were collected for bacterial enumeration and organic acid production through fluorescent in situ hybridisation combined with flow cytometry and gas chromatography, respectively. Overall, the main findings were that the ZnC supplementation combined with WD increased in Bifidobacterium spp., and Clostridium histolyticum group but this finding was not shown in the vessels consisting of the ZnC components only. […] Optimising the dose and substrate availability is important to ensure homeostasis and prevent potential pathogenic bacterial growth. […]
# (§2) A 750 μl sample was collected from each vessel at timepoints 0, 8, 24, 48 and 72 hours. […] The subsequent pellet was used for bacterial enumeration through fluorescence in situ hybridisation flow-cytometry (FISH-FCM) and 500 μl of supernatant used to assess organic acid production via gas chromatography. […]
# (§3) All statistical results were analysed in Prism 8 version 8.4.0 (GraphPad Prism 8, San Diego, California, USA). The FISH-FCM and organic acid production were analysed using two-way mixed ANOVA to compare different test substrates and time points. […]
# [1] = ZnC supplementation 150 mg/day for 1 week; cited from earlier work
# human gut microbiota = test: In vitro gut model batch culture fermentation, organic acid production by gas chromatography; assay type: cell-based; settings: 'except' = not significantly elevated
# Protocol: as §1, §2, §3
# [2] = healthy volunteers under high stress or when diarrhoea was induced; cited from earlier work
substance,measurement,setting,value
Zinc carnosine [ZnC],total bacteria counts elevated,total bacteria,except
same,UC clinical outcomes and remission,[1],improve
same,propionate compared to baseline,"human gut microbiota; 24, 48 and 72 h, WD experiment",except
same,acetate compared to baseline,"human gut microbiota; 72 h, PHGG experiment",except
same,intestinal barrier function,[2],maintained or improved
